Source: doi:10.1101/2023.09.11.557162v4 (biorxiv, 2025)
Read-outs that look alike come from different tables or passages of the source.

What was measured:
Assay in all cases: DNA-dependent ATPase assay
Type in all cases: biochemical
SMARCA4 = SMARCA4 (Homo sapiens, UniProt P51532)
SMARCA2 = SMARCA2 (Homo sapiens, UniProt P51531)
CHD4 = CHD4 (Homo sapiens, UniProt Q14839)
Chain of CHD4 (Q14839 whole entry): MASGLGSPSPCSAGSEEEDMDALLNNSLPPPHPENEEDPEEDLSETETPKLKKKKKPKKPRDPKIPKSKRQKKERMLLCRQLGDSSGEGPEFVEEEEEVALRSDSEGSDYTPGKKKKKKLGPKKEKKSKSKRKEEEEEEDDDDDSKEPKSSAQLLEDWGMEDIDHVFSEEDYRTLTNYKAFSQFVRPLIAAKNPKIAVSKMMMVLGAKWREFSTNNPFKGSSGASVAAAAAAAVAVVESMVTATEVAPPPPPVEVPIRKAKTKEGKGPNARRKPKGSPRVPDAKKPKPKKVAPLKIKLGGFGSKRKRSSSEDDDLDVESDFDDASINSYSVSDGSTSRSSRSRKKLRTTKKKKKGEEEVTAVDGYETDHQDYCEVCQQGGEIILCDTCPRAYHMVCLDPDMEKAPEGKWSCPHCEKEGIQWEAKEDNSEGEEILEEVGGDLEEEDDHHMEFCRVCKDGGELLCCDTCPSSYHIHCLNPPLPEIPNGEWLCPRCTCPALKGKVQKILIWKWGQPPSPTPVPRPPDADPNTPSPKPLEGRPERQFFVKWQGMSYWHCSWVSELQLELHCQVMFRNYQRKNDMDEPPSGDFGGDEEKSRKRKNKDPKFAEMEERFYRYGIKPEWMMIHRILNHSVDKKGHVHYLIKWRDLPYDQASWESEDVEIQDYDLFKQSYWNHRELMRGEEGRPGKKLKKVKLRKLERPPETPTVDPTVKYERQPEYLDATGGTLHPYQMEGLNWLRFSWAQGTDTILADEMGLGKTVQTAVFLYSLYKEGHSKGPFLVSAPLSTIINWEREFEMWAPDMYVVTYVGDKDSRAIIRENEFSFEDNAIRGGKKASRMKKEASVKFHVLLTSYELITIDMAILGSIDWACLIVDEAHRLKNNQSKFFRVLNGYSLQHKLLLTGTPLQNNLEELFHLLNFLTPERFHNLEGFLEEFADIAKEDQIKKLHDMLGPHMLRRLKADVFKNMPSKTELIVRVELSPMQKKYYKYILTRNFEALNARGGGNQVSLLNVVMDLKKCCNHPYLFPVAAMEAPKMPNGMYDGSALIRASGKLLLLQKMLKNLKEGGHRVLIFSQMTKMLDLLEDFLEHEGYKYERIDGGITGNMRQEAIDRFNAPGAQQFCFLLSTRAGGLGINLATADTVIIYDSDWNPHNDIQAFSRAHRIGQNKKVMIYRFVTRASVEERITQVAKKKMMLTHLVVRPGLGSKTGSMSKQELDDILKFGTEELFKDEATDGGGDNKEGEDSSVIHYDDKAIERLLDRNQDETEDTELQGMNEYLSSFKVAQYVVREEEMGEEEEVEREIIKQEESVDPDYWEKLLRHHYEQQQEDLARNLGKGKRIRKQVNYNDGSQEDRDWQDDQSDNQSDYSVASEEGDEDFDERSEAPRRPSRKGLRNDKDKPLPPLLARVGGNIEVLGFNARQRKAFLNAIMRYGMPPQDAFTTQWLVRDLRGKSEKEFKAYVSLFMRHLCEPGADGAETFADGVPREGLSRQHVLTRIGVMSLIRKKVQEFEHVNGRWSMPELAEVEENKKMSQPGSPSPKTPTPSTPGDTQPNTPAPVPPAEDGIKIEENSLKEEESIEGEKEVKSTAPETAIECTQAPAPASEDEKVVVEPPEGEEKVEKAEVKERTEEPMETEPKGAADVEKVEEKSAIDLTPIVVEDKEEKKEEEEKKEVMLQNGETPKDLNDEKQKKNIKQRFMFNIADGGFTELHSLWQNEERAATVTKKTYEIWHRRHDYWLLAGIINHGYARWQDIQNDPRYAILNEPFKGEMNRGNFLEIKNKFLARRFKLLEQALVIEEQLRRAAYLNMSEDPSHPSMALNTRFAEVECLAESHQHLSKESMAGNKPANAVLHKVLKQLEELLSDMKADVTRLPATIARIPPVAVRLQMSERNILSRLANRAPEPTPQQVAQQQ

Chain of SMARCA2 (P51531 whole entry): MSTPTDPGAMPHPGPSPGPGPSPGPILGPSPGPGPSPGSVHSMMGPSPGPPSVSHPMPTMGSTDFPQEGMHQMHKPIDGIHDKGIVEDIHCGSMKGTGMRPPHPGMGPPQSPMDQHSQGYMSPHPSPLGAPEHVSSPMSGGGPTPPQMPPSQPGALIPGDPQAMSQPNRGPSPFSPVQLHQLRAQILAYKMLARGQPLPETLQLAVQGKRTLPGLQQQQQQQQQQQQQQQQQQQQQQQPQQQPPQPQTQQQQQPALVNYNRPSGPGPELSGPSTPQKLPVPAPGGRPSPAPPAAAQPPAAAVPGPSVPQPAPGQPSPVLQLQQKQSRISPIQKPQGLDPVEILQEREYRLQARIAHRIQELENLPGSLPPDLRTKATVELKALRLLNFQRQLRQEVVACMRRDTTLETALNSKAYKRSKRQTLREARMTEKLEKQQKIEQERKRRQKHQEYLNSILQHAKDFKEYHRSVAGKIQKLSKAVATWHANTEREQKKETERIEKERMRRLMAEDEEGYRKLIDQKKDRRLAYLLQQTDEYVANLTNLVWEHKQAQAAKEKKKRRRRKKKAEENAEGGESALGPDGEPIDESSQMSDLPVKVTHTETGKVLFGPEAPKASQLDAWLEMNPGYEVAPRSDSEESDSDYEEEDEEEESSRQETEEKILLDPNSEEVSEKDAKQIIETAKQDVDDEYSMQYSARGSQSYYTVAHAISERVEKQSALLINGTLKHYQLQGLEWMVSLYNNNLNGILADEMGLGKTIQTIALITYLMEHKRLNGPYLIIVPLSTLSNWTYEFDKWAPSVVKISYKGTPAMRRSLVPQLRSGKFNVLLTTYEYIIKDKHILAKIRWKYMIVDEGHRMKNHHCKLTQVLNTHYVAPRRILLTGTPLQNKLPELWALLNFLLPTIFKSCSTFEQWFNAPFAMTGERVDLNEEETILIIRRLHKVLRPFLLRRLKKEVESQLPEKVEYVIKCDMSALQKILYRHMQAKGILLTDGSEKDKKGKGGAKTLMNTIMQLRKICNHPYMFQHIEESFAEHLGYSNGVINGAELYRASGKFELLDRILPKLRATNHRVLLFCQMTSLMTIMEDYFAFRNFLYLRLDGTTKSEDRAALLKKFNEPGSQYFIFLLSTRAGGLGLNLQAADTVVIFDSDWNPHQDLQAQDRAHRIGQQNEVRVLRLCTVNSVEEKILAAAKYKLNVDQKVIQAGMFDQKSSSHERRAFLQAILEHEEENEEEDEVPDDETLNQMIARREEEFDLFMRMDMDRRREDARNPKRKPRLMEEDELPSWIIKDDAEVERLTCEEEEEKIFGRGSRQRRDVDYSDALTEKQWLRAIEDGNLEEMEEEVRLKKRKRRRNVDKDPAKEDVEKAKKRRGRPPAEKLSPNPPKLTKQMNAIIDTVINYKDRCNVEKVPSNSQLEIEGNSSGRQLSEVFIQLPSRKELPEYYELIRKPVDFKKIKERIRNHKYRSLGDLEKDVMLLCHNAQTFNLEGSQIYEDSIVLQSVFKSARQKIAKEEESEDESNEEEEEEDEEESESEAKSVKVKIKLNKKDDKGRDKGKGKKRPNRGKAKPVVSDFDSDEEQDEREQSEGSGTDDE
Chain of SMARCA4 (P51532 whole entry): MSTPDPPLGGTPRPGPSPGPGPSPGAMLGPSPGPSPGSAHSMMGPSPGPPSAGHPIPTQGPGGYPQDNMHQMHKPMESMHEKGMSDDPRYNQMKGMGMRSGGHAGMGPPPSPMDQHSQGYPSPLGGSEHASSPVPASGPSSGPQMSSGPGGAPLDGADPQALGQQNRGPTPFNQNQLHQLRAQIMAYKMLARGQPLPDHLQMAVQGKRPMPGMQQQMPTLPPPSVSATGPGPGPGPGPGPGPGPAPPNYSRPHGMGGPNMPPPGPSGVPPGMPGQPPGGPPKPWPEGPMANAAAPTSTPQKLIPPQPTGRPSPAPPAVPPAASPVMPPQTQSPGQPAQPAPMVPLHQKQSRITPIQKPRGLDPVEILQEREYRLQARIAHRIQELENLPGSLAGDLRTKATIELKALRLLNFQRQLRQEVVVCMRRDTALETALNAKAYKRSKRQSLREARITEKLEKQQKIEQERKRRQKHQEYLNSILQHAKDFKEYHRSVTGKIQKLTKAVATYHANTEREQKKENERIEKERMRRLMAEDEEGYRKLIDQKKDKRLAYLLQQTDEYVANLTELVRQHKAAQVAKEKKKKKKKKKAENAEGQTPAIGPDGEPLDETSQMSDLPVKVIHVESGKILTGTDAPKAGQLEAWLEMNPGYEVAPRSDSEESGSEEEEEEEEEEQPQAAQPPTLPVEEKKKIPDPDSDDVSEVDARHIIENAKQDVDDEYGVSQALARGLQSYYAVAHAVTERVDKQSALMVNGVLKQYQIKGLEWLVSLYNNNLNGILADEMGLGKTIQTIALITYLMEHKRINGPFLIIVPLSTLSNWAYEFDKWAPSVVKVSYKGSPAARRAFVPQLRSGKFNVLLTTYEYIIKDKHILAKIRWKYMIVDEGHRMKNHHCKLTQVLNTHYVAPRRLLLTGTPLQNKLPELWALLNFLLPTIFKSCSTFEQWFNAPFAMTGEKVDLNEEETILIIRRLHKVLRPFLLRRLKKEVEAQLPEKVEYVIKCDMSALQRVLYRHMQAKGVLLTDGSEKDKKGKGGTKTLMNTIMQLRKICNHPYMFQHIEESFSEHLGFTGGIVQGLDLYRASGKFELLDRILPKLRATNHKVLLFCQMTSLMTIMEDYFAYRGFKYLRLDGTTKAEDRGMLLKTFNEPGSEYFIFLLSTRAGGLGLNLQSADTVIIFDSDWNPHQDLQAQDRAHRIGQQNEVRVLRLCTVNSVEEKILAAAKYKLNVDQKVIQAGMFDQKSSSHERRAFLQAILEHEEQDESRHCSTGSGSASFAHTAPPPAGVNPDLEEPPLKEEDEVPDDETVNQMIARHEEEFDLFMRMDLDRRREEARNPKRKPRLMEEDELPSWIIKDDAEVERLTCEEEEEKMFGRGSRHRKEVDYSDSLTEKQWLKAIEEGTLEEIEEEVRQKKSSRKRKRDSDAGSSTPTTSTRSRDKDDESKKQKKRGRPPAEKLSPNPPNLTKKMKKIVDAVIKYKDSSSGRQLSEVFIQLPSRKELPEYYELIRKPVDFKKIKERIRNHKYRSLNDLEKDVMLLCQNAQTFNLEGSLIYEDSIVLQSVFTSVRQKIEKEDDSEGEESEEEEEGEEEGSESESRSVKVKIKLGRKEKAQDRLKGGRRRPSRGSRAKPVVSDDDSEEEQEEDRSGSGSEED

| IC50 (SMARCA4) [nM] | IC50 (SMARCA2) [nM] | IC50 (SMARCA4; DNA-stimulated ATPase) [nM] | IC50 (CHD4) [nM] | SMILES |
| --- | --- | --- | --- | --- |
| 6040 ± 1040 | 2500 ± 500 |  |  | CN(C)S(=O)(=O)c1cccc(C(=O)NCC(=O)Nc2nc(-c3ccccc3)cs2)c1 [FHT-185] |
|  | 13 ± 3 | 26 ± 6 | > 200000 | COC[C@H](NC(=O)c1ccn(S(C)(=O)=O)c1)C(=O)Nc1nc(-c2cccc(-c3ccn(C)n3)c2)cs1 [FHT-2344] |
